Results published in ChEMBL document CHEMBL6121042, “Isolation of Antiplasmodial Oxazoles and Isoflavonoids from the Roots of Oxytropis trichophysa and Total Synthesis of Oxazole-type Alkaloids” (J Nat Prod, 2025).
Calls of active or inactive are those of the source. No cut-off for these calls is given here.

What was measured:
[1] = Cytotoxicity against human HFF cells assessed as reduction in cell viability incubated for 72 hrs by CCK-8 assay; assay type: toxicity, cell-based
[2] = Selectivity index, ratio of CC50 for human HFF cells to IC50 for Plasmodium falciparum 3D7; assay type: toxicity, cell-based; conditions: read-out: Selectivity Index
Plasmodium falciparum = assay: Antiplasmodial activity against Plasmodium falciparum 3D7 infected in red blood cells assessed as parasitic growth inhibition incubated for 72 hrs by SYBR Green I staining based analysis; assay type: functional, organism-based; conditions: for IC50: 3D7, 72 h

Row | SMILES | CC50 at 72 h [1] [µM] | selectivity ratio [2] | IC50 (Plasmodium falciparum) [µM] | Activity (Plasmodium falciparum)
1 | COc1c(O)cc([C@@H]2COc3cc(O)ccc3C2)c(O)c1OC | 5.6 | 0.9 | 6.2 | –
2 | Oc1ccccc1-c1cnc(-c2ccccc2)o1 | > 100 | > 18.8 | 4.6 | –
3 | COc1ccc([C@@H]2COc3cc(O)ccc3C2)c(OC)c1O | – | – | – | inactive
4 | Oc1cccc(-c2cnc(-c3ccccc3)o2)c1O | 8.5 | 2.7 | 3.1 | –
5 | Oc1ccc(O)c(-c2cnc(-c3ccccc3)o2)c1 | 69.3 | 9.4 | 5.5 | –
6 | COc1ccc2c(c1OC)O[C@H]1c3ccc(O)cc3OC[C@@H]21 | – | – | – | inactive
7 | COc1c(O)cc2c(c1OC)O[C@H]1c3ccc(O)cc3OC[C@@H]21 | – | – | – | inactive
8 | COc1cc([C@@H]2COc3cc(O)ccc3C2)c(O)c(OC)c1OC | – | – | – | inactive
9 | COC1=C(OC)C(=O)C([C@@H]2COc3cc(O)ccc3C2)=CC1=O | 13.7 | 2.3 | 5.8 | –
10 | c1ccc(COc2ccc(-c3ncc(-c4ccccc4OCc4ccccc4)o3)cc2)cc1 | 72 | 14.8 | 4.8 | –
11 | C[C@@H]1CC[C@H]2[C@@H](C)C(=O)O[C@@H]3O[C@@]4(C)CC[C@@H]1[C@]32OO4 [ARTEMISININ] | > 200 | > 7890 | 0.025 | –
12 | COc1ccc([C@@H]2COc3cc(O)ccc3C2)c(O)c1OC | – | – | – | inactive
